Legend:
Type in all cases: in vivo, human
[1] = system: pseudohypertrophic muscular dystrophy patients; test: Treatment of pseudohypertrophic muscular dystrophy patients with 4SAS
patient of advanced age = test: Treatment of a patient of advanced age with oral 4SAS; conditions: patient in early 70s; oral dosage
ALS patient = test: Treatment of an ALS patient with oral 4SAS; conditions: ALS patient previously unable to speak; oral dosage
[2] = Oral administration of adenylosuccinate in clinical trials
Description: The administration of the adenylosuccinate may be accomplished via several approaches. It is possible to administer adenylosuccinate by means of a sub-cutaneous pump. […] Alternatively, adenylosuccinate might be suitably packaged for timed release or trans-dermal application.

| SMILES | Improved? ([1]; Patient A, severity 1, therapy 81-89, 1 mg-10 mg, 10-20 mg, 100 mg, 200 mg) | Improved? ([1]; Patient C, severity 3, therapy 81-84, 1 mg-10 mg, 10-20 mg) | Improved? ([1]; Patient D, severity 4, therapy 81-84, 1 mg-10 mg, 10-20 mg) | Improved? ([1]; Patient E, severity 5, therapy 81-84, 1 mg-10 mg, 10-20 mg) | Improved? ([1]; Patient F, therapy 88-89, 70 mg) | Improved? ([1]; Patient G, therapy 87-89, 150 mg, 333 mg) | Improved? ([1]; Patient H, therapy 88-89, 200 mg, 300 mg) | Improved? ([1]; Patient I, therapy 86-89, 10 mg, 25 mg, 100 mg) | Improved? ([1]; Patient J, therapy 86-89, 1200 mg) | Improved? ([1]; Patient K, therapy 87-89, 200 mg, 300 mg) | Improved? ([1]; Patient L, therapy 87-89, dosage small) | Improved? ([1]; Patient N, therapy 89-89, 300 mg) | strength and related functionality ([1]; thirteen young PMD patients at various stages, intraperitoneal, subcutaneous and oral dosages) | energy (patient of advanced age) | healing (patient of advanced age) | posture (patient of advanced age) | capacity to speak (ALS patient) | efficacy of oral administration [2] |
| --- | --- | --- | --- | --- | --- | --- | --- | --- | --- | --- | --- | --- | --- | --- | --- | --- | --- | --- |
| O=C([O-])C[C@H](Nc1ncnc2c1ncn2[C@@H]1O[C@H](COP(=O)([O-])[O-])[C@@H](O)[C@H]1O)C(=O)[O-].[Na+].[Na+].[Na+].[Na+] [4SAS, tetrasodium adenylosuccinate] | Yes | Yes | Yes | Yes | Yes | Yes | Yes | Yes | Yes | Yes | Yes | Yes | increased strength and related functionality | increased energy | accelerated healing | improved posture | temporarily regained capacity to speak intelligibly | – |
| O=C(O)CC(Nc1ncnc2c1ncn2[C@@H]1O[C@H](COP(=O)(O)O)[C@@H](O)[C@H]1O)C(=O)O (stereo partly drawn) [adenylosuccinate] | – | – | – | – | – | – | – | – | – | – | – | – | – | – | – | – | – | proven efficacious |

Source: patent US20150182546A1, “THERAPEUTIC AGENT FOR ENHANCING MITOCHONDRIAL FUNCTION” (Mitochondrial Concepts LLC, priority 2013, published 2015)
